Data as given in US10456414B2, “Methods for treating HCV” (priority 2011, dated 2019).
Where “and” joins values, the source holds several entries; their conditions need not be identical. Equal values may be shown once. Read-outs that look alike come from different tables or passages of the source. Marks after values point to notes of the source that are not given here.

Columns and labels:
HCV genotype 1a replicon [1] = assay: HCV genotype 1a replicon assay, EC50 (Biological Example 3); assay type: cell-based; settings: 3 days
[2] = system: Huh-7 cells carrying a HCV genotype 1a replicon; assay: HCV genotype 1a replicon assay, CC50 by calcein AM (Biological Example 3); assay type: cell-based; settings: genotype 1a replicon cells, 3 days
Method: The CC50 assay was performed first.

[3] = system: 1b Huh-luc replicon cells; assay: Antiviral combination studies with Compound 5, MacSynergy II; assay type: cell-based, HCV; settings: for Antagonism Volume / Synergy Volume: in combination with Compound 5, mean ± standard deviation; for Interaction: in combination with Compound 5
Method: Combination data were analyzed based on the Bliss Independence model using MacSynergy II software. Results of the combination assays were expressed as mean synergy and antagonism volumes (nM^2) calculated at 95% confidence from two independent experiments performed in triplicate.

[4] = Drug-drug interactions of co-administered compounds (exposure); assay type: in vivo
Method: With respect to Compounds 9 and 10, or pharmaceutically acceptable salts thereof, the composition may comprise 10 mg to 1000 mg per day (according to US 2010/0298257). With respect to Compound 11, or pharmaceutically acceptable salts thereof, the composition may comprise 1 mg to 1000 mg per day (according to US 2010/0081628).

genotype 1b replicon RNA = assay: Replicon RNA suppression, 6 day assay, QRT-PCR
[5] = system: Genotype 1 b replicon cells; assay: Compound combination replicon cure assay, colony formation; settings: 6 days treatment at the same concentrations, then G418 for 14 days
HCV genotype 1a replicon [6] = assay: Antiviral combination studies with Compound 4, MacSynergy II; settings: for Antagonism Volume / Synergy Volume: in combination with Compound 4, mean ± standard deviation; for Interaction: in combination with Compound 4
[7] = system: HCV 1b replicon system (Huh-luc); assay: Antiviral combination studies with Compound 6, MacSynergy II; settings: for Antagonism Volume / Synergy Volume: in combination with Compound 6, mean ± standard deviation; for Interaction: in combination with Compound 6
[8] = system: Huh-7 cells carrying a HCV genotype 1a replicon; assay: Cytotoxicity combination studies with Compound 4, MacSynergy II; settings: for Antagonism Volume (cytotoxicity) / Synergy Volume (cytotoxicity): in combination with Compound 4, mean ± standard deviation
[9] = HCV genotype 1a replicon assay, CC50 by calcein AM (Biological Example 8); settings: human, Huh-7 cells carrying an HCV genotype 1a replicon
[10] = system: Huh-7 cells carrying an HCV genotype 1a replicon
HCV genotype 1a replicon [11] = assay: HCV genotype 1a replicon assay, EC50 (Biological Example 8); settings: Hepatitis C virus, 72 h
HCV genotype 1a replicon [12] = assay: Antiviral combination studies with Compound 10, MacSynergy II; settings: in combination with Compound 10
GT1b wild-type replicon = assay: microbe, parasite or virus in culture; assay type: cell-based, HCV; settings: Hepatitis C virus, 72 h, 3 days
[13] = system: GT1b NS5B S282T mutant replicon; assay: microbe, parasite or virus in culture; assay type: cell-based, HCV; settings: Hepatitis C virus, GT1B, 72 h, read-out: EC50 S282T
GT2a wild-type replicon = assay: microbe, parasite or virus in culture; assay type: cell-based, HCV; settings: Hepatitis C virus, 72 h, 3 days
[14] = system: GT2a NS5B S282T mutant replicon; assay: microbe, parasite or virus in culture; assay type: cell-based, HCV; settings: Hepatitis C virus, GT2A, 72 h, read-out: EC50 S282T
[15] = system: GT2b wild-type chimeric replicon (2b NS5B in GT1b backbone); assay: microbe, parasite or virus in culture; assay type: cell-based, HCV; settings: Hepatitis C virus, 72 h, read-out: EC50 WT
[16] = system: GT2b NS5B S282T mutant chimeric replicon; assay: microbe, parasite or virus in culture; assay type: cell-based, HCV; settings: Hepatitis C virus, GT2B, 72 h, read-out: EC50 S282T
[17] = system: GT3a wild-type chimeric replicon (3a NS5B in GT1b backbone); assay: microbe, parasite or virus in culture; assay type: cell-based, HCV; settings: Hepatitis C virus, 72 h, read-out: EC50 WT
[18] = system: GT3a NS5B S282T mutant chimeric replicon; assay: microbe, parasite or virus in culture; assay type: cell-based, HCV; settings: Hepatitis C virus, GT3A, 72 h, read-out: EC50 S282T
[19] = system: GT4a wild-type chimeric replicon (4a NS5B in GT1b backbone); assay: microbe, parasite or virus in culture; assay type: cell-based, HCV; settings: Hepatitis C virus, 72 h, read-out: EC50 WT
[20] = system: GT4a NS5B S282T mutant chimeric replicon; assay: microbe, parasite or virus in culture; assay type: cell-based, HCV; settings: Hepatitis C virus, GT4A, 72 h, read-out: EC50 S282T
[21] = human, dose of 800 mg/day; cited from earlier work
[22] = Hepatitis C virus, 72 h, average ± standard deviation, read-out: EC50
[23] = single compound at the listed concentration, 6 days, relative to DMSO control (Table XIV)

Compound	EC50 (HCV genotype 1a replicon [1]; [22])	CC50 ([2]; read-out: CC50)	Antagonism Volume [3]	Synergy Volume [3]	Antagonism Volume (HCV genotype 1a replicon [6])	Synergy Volume (HCV genotype 1a replicon [6])	Antagonism Volume [7]	Synergy Volume [7]	Interaction (cytotoxicity) ([8]; in combination with Compound 4)	Antagonism Volume (cytotoxicity) [8]	Synergy Volume (cytotoxicity) [8]	CC50 at 3 days [9]	Interaction [7]	further results
Fc1ccccc1-c1nc2ccn(Cc3ccc(-c4ccc(C(F)(F)F)cc4C(F)(F)F)nn3)cc-2n1 [Compound 1, 5-((6-(2,4-bis(trifluoromethyl)phenyl)pyridazin-3-yl)methyl)-2-(2-fluorophenyl)-5H-imidazo[4,5-c]pyridine]	19 ± 8 nM	> 44.4 µM	0 ± 0 nM^2	70 ± 26 nM^2	−1 ± 2 nM^2%	34 ± 26 nM^2%	−17 ± 0.7 nM^2	34 nM^2 and 34 ± 9.9 nM^2	Additivity (Additivity: ≤25 and >−25 nM^2%)	0 ± 1 nM^2%	13 ± 11 nM^2%	> 44.4 µM		increase of exposure of Compound 1 by Compound 2 ([4]; co-administered with Compound 2): 2-3 ×; effect on drug metabolizing systems ([4]; in vivo): does not appear that Compound 1 affects drug metabolizing systems; Replicon RNA log drop (genotype 1b replicon RNA): −1.0 log; Replicon RNA log drop (genotype 1b replicon RNA; [23]): −1.0 log; Uncured colony number [5]: 657
COc1ccc2c(O[C@@H]3C[C@H]4C(=O)N[C@]5(P(=O)(O)Cc6c(F)cccc6F)C[C@H]5CCCCCCC[C@H](NC(=O)OC5CCCC5)C(=O)N4C3)cc(-c3csc(NC(C)C)n3)nc2c1Cl [Compound 2, (2R,6S,13aR,14aS,16aS)-2-(8-chloro-2-(2-(isopropylamino)thiazol-4-yl)-7-methoxyquinolin-4-yloxy)-6-(cyclopentyloxycarbonylamino)-5,16-dioxooctadecahydrocyclopropa[e]pyrrolo[1,2-a][1,4]diazacyclopentadecin-14a-yl(2,6-diflurobenzyl)phosphinic acid]	496 ± 135 nM	> 22.2 µM	−7 ± 7 nM^2	22 ± 12 nM^2	−2 ± 3 nM^2%	22 ± 14 nM^2%	−0.7 ± 0.7 nM^2	52 nM^2 and 52 ± 5.1 nM^2	Additivity (Additivity: ≤25 and >−25 nM^2%)	0 ± 0 nM^2%	17 ± 14 nM^2%		Moderate Synergy	Interaction [3]: Additive; Interaction (HCV genotype 1a replicon [6]): Additivity (Additivity: ≤25 and >−25 nM^2%)
CC(C)OC(=O)[C@H](C)N[P@](=O)(OC[C@H]1O[C@@](C#N)(c2ccc3c(N)ncnn23)[C@](C)(O)[C@@H]1OC(=O)C(C)C)Oc1ccccc1 [Compound 4]	201 ± 74 nM		−1 ± 3 nM^2	26 ± 28 nM^2										Compound concentration able to induce replicon RNA 1-1.5 log drop in a 6 day assay (genotype 1b replicon RNA; genotype 1b replicon cells, 6 days): 1000 nM; Replicon RNA log drop (genotype 1b replicon RNA; [23]): −1.2 log; Uncured colony number [5]: 1054; Interaction (cytotoxicity) ([8]; in combination with Ribavirin (Table IX)): Additivity (Additivity: ≤25 and >−25 nM^2%)
CC1=CC[C@H](C(=O)N(c2cc(C#CC(C)(C)C)sc2C(=O)O)[C@H]2CC[C@](O)(CO[C@H]3CCOC3)CC2)CC1 [Compound 5, 5-(3,3-dimethylbut-1-yn-1-yl)-3-[(cis-4-hydroxy-4-{[(3S)-tetrahydrofuran-3-yloxy]methyl}cyclohexyl){[(1R)-4-methylcyclohex-3-en-1-yl]carbonyl}amino]thiophene-2-carboxylic acid]	15 ± 2.4 nM	> 44.4 µM			−1 ± 3 nM^2%	26 ± 28 nM^2%			Additivity (Additivity: ≤25 and >−25 nM^2%)	−10 ± 7 nM^2%	15 ± 8 nM^2%	> 44.4 µM		Cytotoxicity at Highest Concentration of Compound Combinations (% inhibition on cell growth) ([10]; with 320 nM Compound 10 and the highest concentration of the listed compound): 4.3 ± 2.9%; EC50 (HCV genotype 1a replicon [11]): 0.014 µM; Interaction (HCV genotype 1a replicon [12]): Additive
CC(C)C(=O)OCC1O[C@@H](n2ccc(N)nc2=O)[C@](C)(F)[C@@H]1OC(=O)C(C)C (stereo partly shown) [Compound 7]							−0.2 ± 0.1 nM^2	51 nM^2 and 51 ± 7.8 nM^2					Moderate Synergy	
NC(=O)c1ncn([C@@H]2O[C@H](CO)[C@@H](O)[C@H]2O)n1 [Ribavirin, 1-β-D-ribofuranosyl-1H-1,2,4-Triazole-3-carboxamide, reference compound]	36500 ± 17500 nM	> 88.8 µM	−12 ± 9 nM^2	12 ± 8 nM^2	−43 nM^2% and −43 ± 20 nM^2%	1 ± 1 nM^2%	−0.5 ± 0.1 nM^2	61 nM^2 and 61 ± 0.5 nM^2				> 88.8 µM	Moderate Synergy	Interaction [3]: Additive; EC50 (GT1b wild-type replicon): 6.6 nM; EC50 [13]: 1.6 nM; EC50 (GT2a wild-type replicon): 8.3 nM; EC50 [14]: 0.6 nM; EC50 [15]: 2.6 nM; EC50 [16]: 0.6 nM; EC50 [17]: 6.7 nM; EC50 [18]: 1 nM; EC50 [19]: 6.2 nM; EC50 [20]: 0.6 nM; cell viability ([10]; combined with Compound 10, highest combined concentrations tested): greater than 85%; steady-state plasma concentration [21]: 6 to 11 µM; EC50 (HCV genotype 1a replicon [11]): 33.6 µM; Interaction (HCV genotype 1a replicon [12]): Minor
IFN-α					0 ± 0 nM^2%	12 ± 6 nM^2%	0.0 ± 0.0 nM^2	32 nM^2 and 32 ± 1.4 nM^2	Additivity (Additivity: ≤25 and >−25 nM^2%)	−7 ± 13 nM^2%	8 ± 12 nM^2%		Minor Synergy	EC50 (HCV genotype 1a replicon [1]; IFN-α in Units per milliliter): 1.4 ± 0.3^b U/mL; CC50 ([2]; IFN-α in Units per milliliter): >50^b U/mL; Interaction (HCV genotype 1a replicon [6]): Additivity (Additivity: ≤25 and >−25 nM^2%)
